Source: patent US8604029B2, “2-[(2-substituted)-indolizin-3-yl]-2-oxo-acetamide derivatives as antifungal agents” (F2G Ltd British Body Corporate, priority 2006, dated 2013)
≈ marks a conversion by molar mass, not a printed value.

How the values were obtained:
Assay in all cases: MIC measurement, YAG medium
Type in all cases: cell-based
Aspergillus flavus = details: MIC banded into grades, lowest concentration inhibiting growth by >70%; for MIC: Aspergillus flavus
How it was run: (§1)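 Spores from 5-day Sabouraud agar cultures were diluted in YAG medium (1% glucose, 1% ammonium chloride, 0.5% yeast extract) to a final inoculum of 1-2×10^4 cfu/mL, with drug at 50-0.05 mg/L. Plates were incubated 24 h at 35° C and read as OD 485 nm. MIC is the lowest concentration giving >70% inhibition versus drug-free control, in mg/L.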

[1] = test system: Aspergillus fumigatus AF210; details: MIC banded into grades; for MIC: Aspergillus fumigatus, strain AF210, read-out: MIC A. fumigatus 210
How it was run: as §1

Aspergillus fumigatus = details: YAG medium, MIC banded into grades, strain AF293; for MIC: Aspergillus fumigatus, read-out: MIC A. fumigatus
How it was run: as §1

Aspergillus niger = details: MIC banded into grades; for MIC: Aspergillus niger
How it was run: as §1

Aspergillus terreus AT49 = details: MIC banded into grades; for MIC: Aspergillus terreus, strain AT49, read-out: MIC A. terreus 49
How it was run: as §1

Aspergillus terreus = details: MIC banded into grades, strain not named in head (AT4); for MIC: Aspergillus terreus
How it was run: as §1

MIC (Aspergillus flavus)	MIC [1]	MIC (Aspergillus fumigatus)	MIC (Aspergillus niger)	MIC (Aspergillus terreus AT49)	MIC (Aspergillus terreus)	SMILES	MIC A. flavus (Aspergillus flavus)	MIC A. fumigatus 210 ([1]; strain AF210)	MIC A. fumigatus (Aspergillus fumigatus)	MIC A. niger (Aspergillus niger)	MIC A. terreus 49 (Aspergillus terreus AT49; strain AT49)	MIC A. terreus (Aspergillus terreus)
< 1 µg/mL	< 1 µg/mL	< 1 µg/mL	1 to 10 µg/mL (≈ 1.88 to 18.8 µM)	< 1 µg/mL	< 1 µg/mL	Cc1cc(N2CCN(c3ccc(NC(=O)C(=O)c4c(-c5ccccc5)cc5ccccn45)cc3)CC2)nc(C)n1 [Example 45]	–	–	–	–	–	–
< 1 µg/mL	< 1 µg/mL	< 1 µg/mL	< 1 µg/mL	< 1 µg/mL	< 1 µg/mL	Cc1cc(C)nc(N(C)CCCc2ccc(NC(=O)C(=O)c3c(-c4ccccc4)cc4ccccn34)cc2)c1 [Example 70, N-(4-{3-[(4,6-Dimethyl-pyridin-2-yl)-methyl-amino]-propyl}-phenyl)-2-oxo-2-(2-phenyl-indolizin-3-yl)-acetamide]	–	–	–	–	–	–
< 1 µg/mL	< 1 µg/mL	< 1 µg/mL	< 1 µg/mL	< 1 µg/mL	< 1 µg/mL	O=C(Nc1ccc(N2CCN(c3ccc(CN4CCOCC4)cn3)CC2)cc1)C(=O)c1c(-c2ccccc2)cc2ccccn12 [Example 77, N-{4-[4-(5-morpholin-4-yl-methyl-pyridin-2-yl)-piperazin-1-yl]-phenyl}-2-oxo-2-(2-phenyl-indolizin-3-yl)-acetamide]	–	–	–	–	–	–
–	–	< 1 µg/mL	–	–	–	Cc1cccc(N2CCN(c3ccc(NC(=O)C(=O)c4c(-c5ccccc5)cc5ccccn45)cc3)CC2)n1 [Example 43, N-{4-[4-(6-Methyl-pyridin-2-yl)-piperazin-1-yl]-phenyl}-2-oxo-2-(2-phenyl-indolizin-3-yl)-acetainide]	–	–	–	–	–	–
–	–	> 10 µg/mL	–	–	–	Cc1cc(C)nc(N2CCN(c3ccc(NC(=O)C(=O)c4c(C(C)(C)C)cc5ccccn45)cc3)CC2)c1 [Example 62, 2-(2-tert-Butyl-indolizin-3-yl)-N-{4-[4-(4,6-dimethyl-pyridin-2-yl)-piperazin-1-yl]-phenyl}-2-oxo-acetamide]	–	–	–	–	–	–
–	–	< 1 µg/mL	–	–	–	C=C1CCN(c2ccc(NC(=O)C(=O)c3c(-c4cccnc4C)cc4ccccn34)cc2)CC1 [Example 46, N-[4-(4-Methylene-piperidin-1-yl)-phenyl]-2-[2-(2-methyl-pyridin-3-yl)-indolizin-3-yl]-2-oxo-acetamide]	–	–	–	–	–	–
–	–	< 1 µg/mL	–	–	–	Cc1cc(C)nc(N2CCN(c3ccc(NC(=O)C(=O)c4c(-c5ccccc5)cc5ccccn45)cc3)CC2)n1 [Example 44, N-{4-[4-(4,6-Dimethyl-pyrimidin-2-yl)-piperazin-1-yl]-phenyl}-2-oxo-2-(2-phenyl-indolizin-3-yl)-acetamide]	–	–	–	–	–	–

The next lines start with the molecule.

SMILES	MIC (Aspergillus flavus)	MIC [1]	MIC (Aspergillus fumigatus)	MIC (Aspergillus niger)	MIC (Aspergillus terreus AT49)	MIC (Aspergillus terreus)	MIC A. flavus (Aspergillus flavus)	MIC A. fumigatus 210 ([1]; strain AF210)	MIC A. fumigatus (Aspergillus fumigatus)	MIC A. niger (Aspergillus niger)	MIC A. terreus 49 (Aspergillus terreus AT49; strain AT49)	MIC A. terreus (Aspergillus terreus)
CCn1ccnc1Cc1ccc(NC(=O)C(=O)c2c(-c3ccccc3C)cc3ccccn23)cc1 [Example 30, N-[4-(3-Ethyl-1H-imidazol-2ylmethyl)-phenyl]-2-oxo-2-(2-o-tolyl-indolizin-3yl)-acetamide]	> 10 µg/mL	> 10 µg/mL	> 10 µg/mL	> 10 µg/mL	> 10 µg/mL	> 10 µg/mL	–	–	–	–	–	–
CCOCCN(C1=NC(C)(C)CO1)c1ccc(NC(=O)C(=O)c2c(-c3ccccc3)cc3ccccn23)cc1 [Example 28]	1 to 10 µg/mL (≈ 1.91 to 19.1 µM)	1 to 10 µg/mL (≈ 1.91 to 19.1 µM)	1 to 10 µg/mL (≈ 1.91 to 19.1 µM)	< 1 µg/mL	1 to 10 µg/mL (≈ 1.91 to 19.1 µM)	1 to 10 µg/mL (≈ 1.91 to 19.1 µM)	–	–	–	–	–	–
O=C(Nc1ccc(N2CCN(c3ccccn3)CC2)cc1)C(=O)c1c(-c2ccccc2)cc2ccccn12 [Example 41, 2-Oxo-2-(2-phenyl-indolizin-3yl)-N-[4-(4-pyridin-2-yl-piperizin-1-yl)-phenyl]-acetamide]	< 1 µg/mL	< 1 µg/mL	< 1 µg/mL	< 1 µg/mL	< 1 µg/mL	< 1 µg/mL	–	–	–	–	–	–
Cc1nc(C(C)C)cn1C(C)(C)c1cccc(NC(=O)C(=O)c2c(-c3ccccc3)cc3ccccn23)c1 [Example 25]	1 to 10 µg/mL (≈ 1.98 to 19.8 µM)	> 10 µg/mL	> 10 µg/mL	> 10 µg/mL	1 to 10 µg/mL (≈ 1.98 to 19.8 µM)	1 to 10 µg/mL (≈ 1.98 to 19.8 µM)	–	–	–	–	–	–
O=C(Nc1ccc(N2CCN(Cc3ccco3)CC2)nc1)C(=O)c1c(-c2ccccc2)cc2ccccn12 [Example 34]	< 1 µg/mL	< 1 µg/mL	< 1 µg/mL	< 1 µg/mL	< 1 µg/mL	< 1 µg/mL	–	–	–	–	–	–
O=C(Nc1ccc(N2CCN(Cc3ccco3)CC2)cc1)C(=O)c1c(-c2ccccc2)cc2ccccn12 [Example 31, 4-[4-(2-Furan-2-yl-methyl-piperazin-yl)-phenyl]-2-oxo-2-(2-phenyl-indolizin-3-yl)-acetamide]	< 1 µg/mL	< 1 µg/mL	< 1 µg/mL	< 1 µg/mL	< 1 µg/mL	< 1 µg/mL	–	–	–	–	–	–
O=C(Nc1ccc(N2CCN(c3ccccn3)CC2)cc1)C(=O)c1c(-c2ccccc2)cc2ccc(F)cn12 [Example 42, 2-(6-Fluoro-2-phenyl-indolizin-3-yl)-2-oxo-N-[4-(4-pyridin-2-yl-piperazin-1-yl)phenyl] acetamide]	< 1 µg/mL	< 1 µg/mL	< 1 µg/mL	< 1 µg/mL	< 1 µg/mL	< 1 µg/mL	–	–	–	–	–	–
Cc1ccccc1-c1cc2ccccn2c1C(=O)C(=O)Nc1ccc(N2CCN(Cc3ccco3)CC2)cn1 [Example 35, N-[5-(2-Furan-2-yl-methyl-piperazin-yl)-peridin-2-yl]-2-oxo-2-(2-o-tolyl-indolizin-3-yl)-acetamide]	–	–	–	–	–	–	3 (A grade of 3 represents an MIC of less than 1 mg/L)	3 (A grade of 3 represents an MIC of less than 1 mg/L)	3 (A grade of 3 represents an MIC of less than 1 mg/L)	3 (A grade of 3 represents an MIC of less than 1 mg/L)	3 (A grade of 3 represents an MIC of less than 1 mg/L)	3 (A grade of 3 represents an MIC of less than 1 mg/L)
O=C(Nc1ccc(N2CCN(CCc3ccccn3)CC2)cc1)C(=O)c1c(-c2ccccc2)cc2ccccn12 [Example 36, 2-Oxo-2-(2-phenyl-indolizin-3-yl)-N-{4-[4-(2-pyridin-yl-ethyl)-perazin-1-yl]-phenyl}-acetamide]	< 1 µg/mL	< 1 µg/mL	< 1 µg/mL	< 1 µg/mL	< 1 µg/mL	< 1 µg/mL	–	–	–	–	–	–
O=C(Nc1ccccc1F)C(=O)c1c(-c2ccccc2)cc2ccc3ccccc3n12 [Example 4, N-(2-fluoro-phenyl)-2-oxo-2-(2-phenyl-pyrrolo[1,2-a]quinolin-1-yl)-acetamide]	–	–	> 10 µg/mL	–	–	–	–	–	–	–	–	–
O=C(Nc1ccc(N2CCN(Cc3cccs3)CC2)cc1)C(=O)c1c(-c2ccccc2)cc2ccccn12 [Example 33, 2-Oxo-2-(2-phenylindolizin-3-yl)-N-[4-(4-thiophen-2-ylmethylpiperazin-1-yl)phenyl] acetamide]	< 1 µg/mL	< 1 µg/mL	< 1 µg/mL	< 1 µg/mL	< 1 µg/mL	< 1 µg/mL	–	–	–	–	–	–
